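Method: 48-hour compound exposure of cells in 96-well plates, five concentrations, linear interpolation of endpoints. GI50 is the concentration that inhibits growth by half.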 Calls of active or inactive are those of the source. Rule as the data show it: active = GI50 up to about 1.1 µM and inactive = higher.
Columns and labels:
Test in all cases: growth of human tumour cells (NCI), 48 h
HCT-15 = system: HCT-15
ACHN = system: ACHN
A549 = system: A549
HOP-62 = system: HOP-62
COLO 205 = system: COLO 205
HCC 2998 = system: HCC 2998
HCT-116 = system: HCT-116
HT-29 = system: HT-29
RXF 393 = system: RXF 393
NCI-H23 = system: NCI-H23
SK-MEL-5 = system: SK-MEL-5
SK-MEL-2 = system: SK-MEL-2
SF-539 = system: SF-539
K562 = system: K562
DLD-1 = system: DLD-1
UACC-257 = system: UACC-257
KM12 = system: KM12
OVCAR-4 = system: OVCAR-4
Malme-3M = system: Malme-3M
CAKI-1 = system: CAKI-1
MOLT-4 = system: MOLT-4
NCI-H460 = system: NCI-H460
NCI-H226 = system: NCI-H226
SNB-19 = system: SNB-19
HL-60 = system: HL-60
SF-295 = system: SF-295
LOX IMVI = system: LOX IMVI
CCRF-CEM = system: CCRF-CEM
SK-MEL-28 = system: SK-MEL-28
OVCAR-8 = system: OVCAR-8
KM-20L2 = system: KM-20L2
SK-OV-3 = system: SK-OV-3
LXFL 529 = system: LXFL 529
SW-620 = system: SW-620
M19-MEL = system: M19-MEL
OVCAR-5 = system: OVCAR-5
HOP-18 = system: HOP-18
UACC-62 = system: UACC-62
UO-31 = system: UO-31
SNB-78 = system: SNB-78
IGROV-1 = system: IGROV-1
U-251 = system: U-251
M14 = system: M14
DMS-114 = system: DMS-114
SN12C = system: SN12C
SF-268 = system: SF-268
SR = system: SR
OVCAR-3 = system: OVCAR-3
786-0 = system: 786-0
EKVX = system: EKVX
TK-10 = system: TK-10

Compound: Cc1ccc(NC(=O)CC/C(CC(=O)C(C)(C)C)=N/NC(=O)C[N+](C)(C)C)cc1C
- GI50 (HCT-15): > 100 µM
- GI50 (ACHN): > 100 µM (inactive)
- GI50 (A549): 21.7 µM (inactive)
- GI50 (HOP-62): > 100 µM (inactive)
- GI50 (COLO 205): > 100 µM (inactive)
- GI50 (HCC 2998): > 100 µM (inactive)
- GI50 (HCT-116): > 100 µM (inactive)
- GI50 (HT-29): > 100 µM (inactive)
- GI50 (RXF 393): > 100 µM (inactive)
- GI50 (NCI-H23): > 100 µM (inactive)
- GI50 (SK-MEL-5): > 100 µM (inactive)
- GI50 (SK-MEL-2): > 100 µM (inactive)
- GI50 (SF-539): 18.6 µM (inactive)
- GI50 (K562): > 100 µM (inactive)
- GI50 (DLD-1): > 100 µM (inactive)
- GI50 (UACC-257): > 100 µM (inactive)
- GI50 (KM12): > 100 µM (inactive)
- GI50 (OVCAR-4): > 100 µM (inactive)
- GI50 (Malme-3M): > 100 µM (inactive)
- GI50 (CAKI-1): > 100 µM (inactive)
- GI50 (MOLT-4): > 100 µM (inactive)
- GI50 (NCI-H460): > 100 µM (inactive)
- GI50 (NCI-H226): > 100 µM (inactive)
- GI50 (SNB-19): > 100 µM (inactive)
- GI50 (HL-60): > 100 µM (inactive)
- GI50 (SF-295): > 100 µM (inactive)
- GI50 (LOX IMVI): > 100 µM (inactive)
- GI50 (CCRF-CEM): > 100 µM (inactive)
- GI50 (SK-MEL-28): > 100 µM (inactive)
- GI50 (OVCAR-8): > 100 µM (inactive)
- GI50 (KM-20L2): > 100 µM (inactive)
- GI50 (SK-OV-3): > 100 µM (inactive)
- GI50 (LXFL 529): > 100 µM (inactive)
- GI50 (SW-620): > 100 µM (inactive)
- GI50 (M19-MEL): > 100 µM (inactive)
- GI50 (OVCAR-5): > 100 µM (inactive)
- GI50 (HOP-18): > 100 µM (inactive)
- GI50 (UACC-62): > 100 µM (inactive)
- GI50 (UO-31): > 100 µM (inactive)
- GI50 (SNB-78): > 100 µM (inactive)
- GI50 (IGROV-1): > 100 µM (inactive)
- GI50 (U-251): > 100 µM (inactive)
- GI50 (M14): > 100 µM (inactive)
- GI50 (DMS-114): > 100 µM (inactive)
- GI50 (SN12C): > 100 µM (inactive)
- GI50 (SF-268): > 100 µM (inactive)
- GI50 (SR): 84.1 µM (inactive)
- GI50 (OVCAR-3): > 100 µM (inactive)
- GI50 (786-0): 18.2 µM (inactive)
- GI50 (EKVX): > 100 µM (inactive)
- GI50 (TK-10): > 100 µM (inactive)

Reference: ChEMBL document CHEMBL1201862, “PubChem BioAssay data set” (2004)
